These compounds were tested against T1, recombinant human DHODH (Homo sapiens, UniProt Q02127) (assay: Inhibition assay of DHODH activity, human enzyme). Details: class symbol (head prints μM, key in nM).
T1 construct: provided by Prof; M. Löffler, Marburg, Germany (gift, not a commercial vendor)
Assay type: biochemical
Method: The standard assay mixture contained 50 μM decyclo ubichinone, 100 μM dihydroorotate, 60 μM 2,6-dichloroindophenol, as well as 20 mU DHODH. The volume activity of the recombinant enzyme used was 30 U/ml. Measurements were conducted in 50 mM TrisHCl (150 mM KCl, 0.1% Triton X-100, pH 8.0) at 30° C. in a final volume of 1 ml. The components were mixed, and the reaction was started by adding dihydroorotate. The course of reaction was followed by spectrophotometrically measuring the decrease in absorption at 600 nm for 2 min.
Inhibitory studies were conducted in a standard assay with additional variable amounts of inhibitor.
These investigations were carried out with recombinant human as well as with recombinant murine DHODH provided by Prof. M. Löffler, Marburg, Germany [M. Löffler, Chem. Biol. Interact.

T1 sequence (Q02127 whole entry): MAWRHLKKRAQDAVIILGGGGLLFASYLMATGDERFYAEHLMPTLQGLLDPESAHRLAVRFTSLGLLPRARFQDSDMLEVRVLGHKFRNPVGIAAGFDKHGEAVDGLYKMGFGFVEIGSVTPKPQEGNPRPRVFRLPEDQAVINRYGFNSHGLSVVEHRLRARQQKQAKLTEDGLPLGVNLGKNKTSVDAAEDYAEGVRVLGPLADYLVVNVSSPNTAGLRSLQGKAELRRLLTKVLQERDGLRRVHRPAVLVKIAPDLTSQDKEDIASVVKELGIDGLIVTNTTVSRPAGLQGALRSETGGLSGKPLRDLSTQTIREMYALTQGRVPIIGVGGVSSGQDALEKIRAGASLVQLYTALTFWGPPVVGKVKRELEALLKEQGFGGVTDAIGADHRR

SMILES	IC50
O=C(O)C1=C(C(=O)Nc2ccc(OCc3ccccc3)c(Cl)c2)CCC1 [Compound 72]	< 0.8 µM
COc1ccccc1-c1ccc(NC(=O)C2=C(C(=O)O)CCC2)c(C)c1 [Compound 57, 2-((2′-methoxy-3-methyl-[1,1′-biphenyl]-4-yl)carbamoyl)cyclopent-1-enecarboxylic acid]	< 0.8 µM
O=C(O)C1=C(C(=O)Nc2c(F)cc(-c3ccccc3F)cc2F)CCC1 [Compound 66, 2-((2′,3,5-trifluoro-[1,1′-biphenyl]-4-yl)carbamoyl)cyclopent-1-enecarboxylic acid]	< 0.8 µM
O=C(O)C1=C(C(=O)Nc2ccc(Oc3ccccc3)cc2)CCC1 [Compound 50, 2-((4-phenoxyphenyl)carbamoyl)cyclopent-1-enecarboxylic acid]	< 0.8 µM
COc1ccccc1-c1cc(Cl)c(NC(=O)C2=C(C(=O)O)CCC2)c(Cl)c1 [Compound 58, 2-((3,5-dichloro-2′-methoxy-[1,1′-biphenyl]-4-yl)carbamoyl)cyclopent-1-enecarboxylic acid]	< 0.8 µM
COc1ccc(-c2cc(F)c(NC(=O)C3=C(C(=O)O)CCC3)c(F)c2)c(OC)c1 [Compound 67, 2-((3,5-difluoro-2′,4′-dimethoxy-[1,1′-biphenyl]-4-yl)carbamoyl)cyclopent-1-enecarboxylic acid]	< 0.8 µM
COc1ccccc1-c1c(F)c(F)c(NC(=O)C2=C(C(=O)O)CCC2)c(F)c1F [Compound 56, 2-((2,3,5,6-tetrafluoro-2′-methoxy-[1,1′-biphenyl]-4-yl)carbamoyl)cyclopent-1-enecarboxylic acid]	< 0.8 µM
O=C(O)C1=C(C(=O)Nc2c(F)cc(-c3ccccc3Cl)cc2F)CCC1 [Compound 65, 2-((2′-chloro-3,5-difluoro-[1,1′-biphenyl]-4-yl)carbamoyl)cyclopent-1-enecarboxylic acid]	< 0.8 µM
COc1ccc(-c2ccc(NC(=O)C3=C(C(=O)O)CCC3)cc2Cl)cc1 [Compound 19, 2-((2-chloro-4′-methoxy-[1,1′-biphenyl]-4-yl)carbamoyl)cyclopent-1-enecarboxylic acid]	< 0.8 µM
N#Cc1cccc(-c2ccc(NC(=O)C3=C(C(=O)O)CCC3)cc2Cl)c1 [Compound 18, 2-((2-chloro-3′-cyano-[1,1′-biphenyl]-4-yl)carbamoyl)cyclopent-1-enecarboxylic acid]	< 0.8 µM
COc1cc(-c2cccc(OC(F)(F)F)c2)ccc1NC(=O)C1=C(C(=O)O)CCC1 [Compound 35, 2-((3-methoxy-3′-(trifluoromethoxy)-[1,1′-biphenyl]-4-yl)carbamoyl)cyclopent-1-enecarboxylic acid]	< 0.8 µM
O=C(O)C1=C(C(=O)Nc2ccc(-c3ccccc3Cl)cc2)CCC1 [Compound 14, 2-((2′-chloro-[1,1′-biphenyl]-4-yl)carbamoyl)cyclopent-1-enecarboxylic acid]	< 0.8 µM
O=C(O)C1=C(C(=O)Nc2ccc(-c3cccc(OC(F)(F)F)c3)cc2)CCC1 [Compound 43, 2-((3′-(trifluoromethoxy)-[1,1′-biphenyl]-4-yl)carbamoyl)cyclopent-1-enecarboxylic acid]	< 0.8 µM
O=C(O)C1=C(C(=O)Nc2ccc(OCc3ccccc3C(F)(F)F)c(Cl)c2)CCC1 [Compound 68]	< 0.8 µM
COc1ccccc1-c1ccc(NC(=O)C2=C(C(=O)O)CCC2)c([N+](=O)[O-])c1 [Compound 32, 2-((2′-methoxy-3-nitro-[1,1′-biphenyl]-4-yl)carbamoyl)cyclopent-1-enecarboxylic acid]	< 0.8 µM
O=C(O)C1=C(C(=O)Nc2ccc(-c3cc4ccccc4s3)cc2F)CCC1 [Compound 45, 2-((4-(benzo[b]thiophen-2-yl)-2-fluorophenyl)carbamoyl)cyclopent-1-enecarboxylic acid]	< 0.8 µM
CCOc1cccc(-c2cc(F)c(NC(=O)C3=C(C(=O)O)CCC3)c(F)c2)c1 [Compound 63, 2-((3′-ethoxy-3,5-difluoro-[1,1′-biphenyl]-4-yl)carbamoyl)cyclopent-1-enecarboxylic acid]	< 0.8 µM
O=C(O)C1=C(C(=O)Nc2ccc(OCc3ccccc3F)c(Cl)c2)CCC1 [Compound 74, 2-((3-chloro-4-((2-fluorobenzyl)oxy)phenyl)carbamoyl)cyclopent-1-enecarboxylic acid]	< 0.8 µM
CCOc1cccc(-c2ccc(NC(=O)C3=C(C(=O)O)CCC3)c(F)c2)c1 [Compound 46, 2-((3′-ethoxy-3-fluoro-[1,1′-biphenyl]-4-yl)carbamoyl)cyclopent-1-enecarboxylic acid]	< 0.8 µM
COc1cccc(-c2ccc(NC(=O)C3=C(C(=O)O)CCC3)c(OC)c2)c1 [Compound 39, 2-((3,3′-dimethoxy-[1,1′-biphenyl]-4-yl)carbamoyl)cyclopent-1-enecarboxylic acid]	< 0.8 µM

SMILES	IC50
Cc1cccc(Sc2ccc(NC(=O)C3=C(C(=O)O)CCC3)cc2)c1 [Compound 42, 2-((4-(m-tolylthio)phenyl)carbamoyl)cyclopent-1-enecarboxylic acid]	< 0.8 µM
COc1ccc(-c2ccc(NC(=O)C3=C(C(=O)O)CCC3)c(OC)c2)c(OC)c1 [Compound 37, 2-((2′,3,4′-trimethoxy-[1,1′-biphenyl]-4-yl)carbamoyl)cyclopent-1-enecarboxylic acid]	< 0.8 µM
COc1ccccc1-c1ccc(NC(=O)C2=C(C(=O)O)CCC2)c(Cl)c1 [Compound 53, 2-((3-chloro-2′-methoxy-[1,1′-biphenyl]-4-yl)carbamoyl)cyclopent-1-enecarboxylic acid]	< 0.8 µM
O=C(O)C1=C(C(=O)Nc2cc(Br)c(OCc3ccccc3)c(Br)c2)CSC1 [Compound 29, 4-((4-(benzyloxy)-3,5-dibromophenyl)carbamoyl)-2,5-dihydrothiophene-3-carboxylic acid]	< 0.8 µM
O=C(O)C1=C(C(=O)Nc2ccc(-c3cc4ccccc4s3)cc2)CCC1 [Compound 44, 2-((4-(benzo[b]thiophen-2-yl)phenyl)carbamoyl)cyclopent-1-enecarboxylic acid]	< 0.8 µM
O=C(O)C1=C(C(=O)Nc2c(F)cc(-c3cccc(OC(F)(F)F)c3)cc2F)CCC1 [Compound 64, 2-((3,5-difluoro-3′-(trifluoromethoxy)-[1,1′-biphenyl]-4-yl)carbamoyl)cyclopent-1-enecarboxylic acid]	< 0.8 µM
COc1ccc(-c2ccc(NC(=O)C3=C(C(=O)O)CCC3)cc2C)cc1 [Compound 23, 2-((4′-methoxy-2-methyl-[1,1′-biphenyl]-4-yl)carbamoyl)cyclopent-1-enecarboxylic acid]	< 0.8 µM
O=C(O)C1=C(C(=O)Nc2ccc(-c3cccc(F)c3)cc2F)CCC1 [Compound 27, 2-((3,3′-difluoro-[1,1′-biphenyl]-4-yl)carbamoyl)cyclopent-1-enecarboxylic acid]	< 0.8 µM
CCOc1cccc(-c2ccc(NC(=O)C3=C(C(=O)O)CCC3)c(OC)c2)c1 [Compound 38, 2-((3′-ethoxy-3-methoxy-[1,1′-biphenyl]-4-yl)carbamoyl)cyclopent-1-enecarboxylic acid]	< 0.8 µM
COc1cc(-c2ccccc2Cl)ccc1NC(=O)C1=C(C(=O)O)CCC1 [Compound 34, 2-((2′-chloro-3-methoxy-[1,1′-biphenyl]-4-yl)carbamoyl)cyclopent-1-enecarboxylic acid]	< 0.8 µM
COc1cc(-c2ccccc2)ccc1NC(=O)C1=C(C(=O)O)CCC1 [Compound 33, 2-((3-methoxy-[1,1′-biphenyl]-4-yl)carbamoyl)cyclopent-1-enecarboxylic acid]	< 0.8 µM
Cc1cc(-c2cc(F)c(NC(=O)C3=C(C(=O)O)CCC3)c(F)c2)ccc1F [Compound 30, 2-((3,4′,5-trifluoro-3′-methyl-[1,1′-biphenyl]-4-yl)carbamoyl)cyclopent-1-enecarboxylic acid]	< 0.8 µM
O=C(O)C1=C(C(=O)Nc2ccc(OCc3c(F)cccc3F)cc2)CCC1 [Compound 16, 2-((4-((2,6-difluorobenzyl)oxy)phenyl)carbamoyl)cyclopent-1-enecarboxylic acid]	< 0.8 µM
O=C(O)C1=C(C(=O)Nc2ccc(-c3ccccc3F)cc2)CCC1 [Compound 13, 2-((2′-fluoro-[1,1′-biphenyl]-4-yl)carbamoyl)cyclopent-1-enecarboxylic acid]	< 0.8 µM
CCOc1ccccc1-c1ccc(NC(=O)C2=C(C(=O)O)CCC2)c(F)c1 [Compound 17, 2-((2′-ethoxy-3-fluoro-[1,1′-biphenyl]-4-yl)carbamoyl)cyclopent-1-enecarboxylic acid]	< 0.8 µM
COc1ccccc1-c1ccc(NC(=O)C2=C(C(=O)O)CCC2)cc1 [Compound 15, 2-((2′-methoxy-[1,1′-biphenyl]-4-yl)carbamoyl)cyclopent-1-enecarboxylic acid]	< 0.8 µM
COc1cc(-c2ccccc2F)ccc1NC(=O)C1=C(C(=O)O)CCC1 [Compound 36, 2-((2′-fluoro-3-methoxy-[1,1′-biphenyl]-4-yl)carbamoyl)cyclopent-1-enecarboxylic acid]	< 0.8 µM
COc1ccc(-c2ccc(NC(=O)C3=C(C(=O)O)CCC3)cc2Cl)cn1 [Compound 22, 2-((3-chloro-4-(6-methoxypyridin-3-yl)phenyl)carbamoyl)cyclopent-1-enecarboxylic acid]	< 0.8 µM
CCOc1ccccc1-c1cc(F)c(NC(=O)C2=C(C(=O)O)CCC2)c(F)c1 [Compound 62, 2-((2′-ethoxy-3,5-difluoro-[1,1′-biphenyl]-4-yl)carbamoyl)cyclopent-1-enecarboxylic acid]	< 0.8 µM
COc1ccccc1-c1ccc(NC(=O)C2=C(C(=O)O)CCC2)cc1Cl [Compound 54, 2-((2-chloro-2′-methoxy-[1,1′-biphenyl]-4-yl)carbamoyl)cyclopent-1-enecarboxylic acid]	< 0.8 µM

Reference: patent US8653138B2, “Calcium salts of compounds as anti-inflammatory, immunomodulatory and anti-proliferatory agents” (4SC MG, priority 2010, dated 2014)
